# Laboratory results: patent US12171230B2, “Herbicidal compositions” (Bayer Aktiengesellschaft, priority 2018, dated 2024)
# Where “and” joins values, the source holds several entries; their conditions need not be identical. Identical values can stand only once.
# How the values were obtained:
# Assay type in all cases: in vivo
# Bromus sterilis [1] = experiment: Post-emergence herbicidal action against Bromus sterilis; details: 1 g of a.i./ha
# Bellis perenne = experiment: Post-emergence herbicidal action against Bellis perenne; details: 100 g of a.i./ha
# Description: (§1) When the observed efficacies exceed the formal sum total of the values of the tests with individual applications, they also exceed the expected value according to Colby, which is calculated using the formula below and is likewise regarded as an indication of synergism (cf. S. R. Colby; in Weeds 15 (1967) p. 20 to 22): E^C=A+B−([…])
# (§2) Here: • A=efficacy of the active compound (A) in % at an application rate of a g a.i./ha; • B=efficacy of the active compound (B) in % at an application rate of b g a.i./ha; • E^C=expected value of the effect of the combination (A)+(B) in % at the combined application rate a+b g a.i./ha.
# (§3) Seeds or rhizome pieces of mono- and dicotyledonous weeds are placed in sandy loam in pots, covered with soil and grown in a greenhouse under good growth conditions (temperature, air humidity, water supply). Three weeks after sowing, the test plants were treated at the three-leaf stage with the compositions according to the invention. The compositions according to the invention formulated as spray powders or as emulsion concentrates were sprayed onto the green plant parts in various dosages with an application rate of 300 to 800 l/ha of water (equivalent). After the test plants have been left to stand in the greenhouse under optimal growth conditions for about 3 to 4 weeks, the action of the preparations is scored visually in comparison to untreated controls. […]
# Abutilon theophrasti = experiment: Post-emergence herbicidal action against Abutilon theophrasti; details: 100 g of a.i./ha
# Lolium rigidum [2] = experiment: Post-emergence herbicidal action against Lolium rigidum
# Ephilobium hirsutum = experiment: Post-emergence herbicidal action against Ephilobium hirsutum; details: 100 g of a.i./ha
# Description: as §1, §2, §3
# Bromus sterilis [3] = experiment: Post-emergence herbicidal action against Bromus sterilis; details: 14 DAT; 1 g a.i./ha
# Ipomoea ssp. = experiment: Post-emergence herbicidal action against Ipomoea ssp.; details: 45 DAT
# Alopecurus myosuroides [4] = experiment: Post-emergence herbicidal action against Alopecurus myosuroides
# Lolium rigidum [5] = experiment: Post-emergence herbicidal action against Lolium rigidum; remark: listed apart in the source
# [6] = system: Lolium rigidum (resistant biotype); experiment: Post-emergence herbicidal action against Lolium rigidum (resistant biotype)
# Centaurea cyano = experiment: Post-emergence herbicidal action against Centaurea cyano
# In short: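 Formulations (spray powders or emulsion concentrates) applied at various doses onto foliage using 300 to 800 l/ha water; plants treated at three-leaf stage, three weeks post-sowing in sandy loam under greenhouse conditions.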
# Phalaris minor [7] = experiment: Post-emergence herbicidal action against Phalaris minor
# Viola tricolor = experiment: Post-emergence herbicidal action against Viola tricolor
# Veronica hederifolia [8] = experiment: Post-emergence herbicidal action against Veronica hederifolia; details: 28 DAT; 1 g a.i./ha
# Bromus sterilis [9] = experiment: Post-emergence herbicidal action against Bromus sterilis
# Veronica hederifolia [10] = experiment: Post-emergence herbicidal action against Veronica hederifolia
# Alopecurus myosuroides [11] = experiment: Post-emergence herbicidal action against Alopecurus myosuroides; remark: listed apart in the source
# Phalaris minor [12] = experiment: Post-emergence herbicidal action against Phalaris minor; remark: listed apart in the source
# Viola arvensis = experiment: Post-emergence herbicidal action against Viola arvensis; details: 100 g of a.i./ha
# Description: as §1, §2
# (§4) Seeds or rhizome pieces of mono- and dicotyledonous weeds are placed in sandy loam in pots, covered with soil and grown in a greenhouse under good growth conditions (temperature, air humidity, water supply). Three weeks after sowing, the test plants were treated at the three-leaf stage with the compositions according to the invention. The compositions according to the invention formulated as spray powders or as emulsion concentrates were sprayed onto the green plant parts in various dosages with an application rate of 300 to 800 l/ha of water (equivalent). […] The compositions according to the invention also have good post-emergence herbicidal activity against a broad spectrum of economically important gramineous and broadleaf weeds.
# Ipomoea hederacea = experiment: Post-emergence herbicidal action against Ipomoea hederacea; details: 100 g of a.i./ha
# Description: as §1, §2
# Seeds or rhizome pieces of mono- and dicotyledonous weeds are placed in sandy loam in pots, covered with soil and grown in a greenhouse under good growth conditions (temperature, air humidity, water supply). Three weeks after sowing, the test plants were treated at the three-leaf stage with the compositions according to the invention. The compositions according to the invention formulated as spray powders or as emulsion concentrates were sprayed onto the green plant parts in various dosages with an application rate of 300 to 800 l/ha of water (equivalent). After the test plants have been left to stand in the greenhouse under optimal growth conditions for about 3 to 4 weeks, the action of the preparations is scored visually in comparison to untreated controls. The compositions according to the invention also have good post-emergence herbicidal activity against a broad spectrum of economically important gramineous and broadleaf weeds.
# Ranunculus repens = experiment: Post-emergence herbicidal action against Ranunculus repens; details: 100 g of a.i./ha
# Description: as §1, §2, §4
compound,measurement,setting,value
"C=C[C@]1(C(=O)N[C@H]2CO[C@@H](C(=O)OC)C2)CC(c2cc(F)cc(F)c2)=NO1 (relative stereo) [Compound A3, methyl rel-(2R,4R)-4-[[(5S)-3-(3,5-difluorophenyl)-5-vinyl-4H-isoxazole-5-carbonyl]amino]tetrahydrofuran-2-carboxylate]",Herbicidal action in [%] 14 DAT against Bromus sterilis,Bromus sterilis [1],15% and 30%
same,Herbicidal action in [%] 28 DAT against Bromus sterilis,Bromus sterilis [1],15%
same,Herbicidal action 43 DAT [%] against Bellis perenne,Bellis perenne,0%
same,Herbicidal action 37 DAT [%] against Abutilon theophrasti,Abutilon theophrasti,75%
same,Herbicidal action against Lolium rigidum,"Lolium rigidum [2]; 14 DAT, 1 g of a.i./ha",35%
same,Herbicidal action against Lolium rigidum,"Lolium rigidum [2]; 28 DAT, 1 g of a.i./ha",15%
same,Herbicidal action against Lolium rigidum,"Lolium rigidum [2]; 28 DAT, 4 g of a.i./ha",50%
same,Herbicidal action 43 DAT [%] against Ephilobium hirsutum,Ephilobium hirsutum,77%
same,Herbicidal action,Bromus sterilis [3],30%
same,Herbicidal action,Ipomoea ssp.; 50 g a.i./ha,40%
same,Herbicidal action,Ipomoea ssp.; 100 g a.i./ha,50%
same,Herbicidal action against Alopecurus myosuroides,"Alopecurus myosuroides [4]; 14 DAT, 1 g of a.i./ha",15%
same,Herbicidal action against Alopecurus myosuroides,"Alopecurus myosuroides [4]; 14 DAT, 4 g of a.i./ha",90%
same,Herbicidal action against Alopecurus myosuroides,"Alopecurus myosuroides [4]; 28 DAT, 1 g of a.i./ha",15%
same,Herbicidal action against Alopecurus myosuroides,"Alopecurus myosuroides [4]; 28 DAT, 4 g of a.i./ha",50%
same,Herbicidal action in [%] 14 DAT against Lolium rigidum,Lolium rigidum [5]; 1 g of a.i./ha,35% and 40%
same,Herbicidal action in [%] 28 DAT against Lolium rigidum,Lolium rigidum [5]; 1 g of a.i./ha,15% and 10%
same,Herbicidal action in [%] 14 DAT against Lolium rigidum,Lolium rigidum [5]; 4 g of a.i./ha,85%
same,Herbicidal action in [%] 28 DAT against Lolium rigidum,Lolium rigidum [5]; 4 g of a.i./ha,50% and 70%
same,Herbicidal action in [%] 14 DAT against Lolium rigidum (resistant biotype),[6]; 1 g of a.i./ha,15% and 30%
same,Herbicidal action in [%] 28 DAT against Lolium rigidum (resistant biotype),[6]; 1 g of a.i./ha,0%
same,Herbicidal action in [%] 14 DAT against Lolium rigidum (resistant biotype),[6]; 4 g of a.i./ha,40% and 60%
same,Herbicidal action 14 DAT against Centaurea cyanus,Centaurea cyano; 1 g of a.i./ha,20%
same,Herbicidal action 28 DAT against Centaurea cyanus,Centaurea cyano; 1 g of a.i./ha,10% and 0%
same,Herbicidal action in [%] 14 DAT against Centaurea cyanus,Centaurea cyano; 1 g of a.i./ha,30%
same,Herbicidal action in [%] 28 DAT against Centaurea cyanus,Centaurea cyano; 1 g of a.i./ha,10%
same,Herbicidal action 14 DAT against Centaurea cyanus,Centaurea cyano; 4 g of a.i./ha,50%
same,Herbicidal action 28 DAT against Centaurea cyanus,Centaurea cyano; 4 g of a.i./ha,20%
same,Herbicidal action in [%] 14 DAT against Centaurea cyanus,Centaurea cyano; 4 g of a.i./ha,50%
same,Herbicidal action in [%] 28 DAT against Centaurea cyanus,Centaurea cyano; 4 g of a.i./ha,50%
same,Herbicidal action against Centaurea cyanus,"Centaurea cyano; 14 DAT, 16 g of a.i./ha",80%
same,Herbicidal action in [%] 14 DAT against Centaurea cyanus,Centaurea cyano; 16 g of a.i./ha,70%
same,Herbicidal action in [%] 28 DAT against Centaurea cyanus,Centaurea cyano; 16 g of a.i./ha,40% and 70%
same,Herbicidal action in [%] 28 DAT against Centaurea cyano,"Centaurea cyano; 16 g of a.i./ha, post-emergence",70%
same,Herbicidal action against Centaurea cyanus,"Centaurea cyano; 28 DAT, 16 g of a.i./ha",40%
same,Herbicidal action 28 DAT against Centaurea cyanus,"Centaurea cyano; (Z61) post-emergence, g of a.i./ha: 1, 270, 90, 1 + 270, 1 + 90",0%
same,Herbicidal action,"Phalaris minor [7]; 14 DAT, 1 g a.i./ha",20%
same,Herbicidal action,"Phalaris minor [7]; 14 DAT, 4 g a.i./ha",85%
same,Herbicidal action,"Phalaris minor [7]; 14 DAT, 16 g a.i./ha",85%
same,Herbicidal action,"Phalaris minor [7]; 28 DAT, 1 g a.i./ha",10%
same,Herbicidal action,"Phalaris minor [7]; 28 DAT, 4 g a.i./ha",85%
same,Herbicidal action,"Phalaris minor [7]; 28 DAT, 16 g a.i./ha",85%
same,Herbicidal action in [%] 14 DAT against Viola tricolor,Viola tricolor; 1 g of a.i./ha,50%
same,Herbicidal action in [%] 28 DAT against Viola tricolor,Viola tricolor; 1 g of a.i./ha,15%
same,Herbicidal action in [%] 28 DAT against Viola tricolor,Viola tricolor; 4 g of a.i./ha,30%
same,Herbicidal action,Veronica hederifolia [8],30%
same,Herbicidal action against Bromus sterilis,"Bromus sterilis [9]; 14 DAT, 1 g of a.i./ha",15%
same,Herbicidal action against Bromus sterilis,"Bromus sterilis [9]; 14 DAT, 4 g of a.i./ha",85%
same,Herbicidal action against Bromus sterilis,"Bromus sterilis [9]; 28 DAT, 1 g of a.i./ha",15%
same,Herbicidal action against Veronica hederifolia,"Veronica hederifolia [10]; 14 DAT, 1 g of a.i./ha",30%
same,Herbicidal action against Veronica hederifolia,"Veronica hederifolia [10]; 14 DAT, 16 g of a.i./ha",40%
same,Herbicidal action against Veronica hederifolia,"Veronica hederifolia [10]; 28 DAT, 16 g of a.i./ha",50%
same,Herbicidal action,"Alopecurus myosuroides [11]; 14 DAT, 1 g a.i./ha",30%
same,Herbicidal action,"Alopecurus myosuroides [11]; 14 DAT, 4 g a.i./ha",75%
same,Herbicidal action,"Alopecurus myosuroides [11]; 28 DAT, 1 g a.i./ha",10%
same,Herbicidal action,"Alopecurus myosuroides [11]; 28 DAT, 4 g a.i./ha",60%
same,Herbicidal action in [%] 14 DAT against Phalaris minor,Phalaris minor [12]; 1 g of a.i./ha,10% and 20%
same,Herbicidal action in [%] 28 DAT against Phalaris minor,Phalaris minor [12]; 1 g of a.i./ha,0% and 10%
same,Herbicidal action in [%] 14 DAT against Phalaris minor,Phalaris minor [12]; 4 g of a.i./ha,90% and 85%
same,Herbicidal action in [%] 28 DAT against Phalaris minor,Phalaris minor [12]; 4 g of a.i./ha,70%
same,Herbicidal action in [%] 14 DAT against Phalaris minor,Phalaris minor [12]; 16 g of a.i./ha,85%
same,Herbicidal action 43 DAT [%] against Viola arvensis,Viola arvensis,50%
same,Herbicidal action 37 DAT against Ipomoea hederacea,Ipomoea hederacea,8%
same,Herbicidal action 37 DAT [%] against Ipomoea hederacea,Ipomoea hederacea; post-emergence,8%
same,Herbicidal action 43 DAT [%] against Ranunculus repens,Ranunculus repens,82%
